Results reported in patent US20090099099A1, “Isoflavone Glycosides as Peroxisome Proliferator-Activated Receptor-alpha Modulator” (priority 2007, published 2009).
Like-named read-outs stand apart in the source and are kept apart here.

What was measured:
PPAR-α [1] = target: T1, PPAR-α (Homo sapiens, UniProt Q07869); details: cited from earlier work
T1 sequence (Q07869 1-468): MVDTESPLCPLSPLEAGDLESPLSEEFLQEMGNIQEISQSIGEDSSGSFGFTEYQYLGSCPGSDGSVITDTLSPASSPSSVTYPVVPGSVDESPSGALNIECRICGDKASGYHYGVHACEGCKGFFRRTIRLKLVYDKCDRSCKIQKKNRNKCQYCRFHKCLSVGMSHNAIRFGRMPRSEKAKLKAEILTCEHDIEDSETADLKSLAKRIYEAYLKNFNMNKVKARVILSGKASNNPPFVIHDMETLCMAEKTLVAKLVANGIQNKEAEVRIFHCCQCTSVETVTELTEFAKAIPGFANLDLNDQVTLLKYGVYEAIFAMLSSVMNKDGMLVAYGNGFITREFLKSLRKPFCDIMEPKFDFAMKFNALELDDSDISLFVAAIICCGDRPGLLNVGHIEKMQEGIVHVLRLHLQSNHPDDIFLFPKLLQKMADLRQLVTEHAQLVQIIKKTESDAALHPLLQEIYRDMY

[2] = mice; cited from earlier work
[3] = rats, oral intake; cited from earlier work
[4] = cited from earlier work
PPAR-α [5] = assay: Protein immuno-blotting of PPAR-α expression in HepG2 cells; assay type: cell-based, human; details: puerarin 1-100 μM, 24 hours, Western blotting
Experimental: FIG. 2. Expression of PPAR-α in HepG2 cells. Cells were incubated in puerarin (1-100 μM) for 24 hrs. Whole cell lysate were collected and PPAR-α expression was probed using anti-PPAR-α (Santa Cruz, Calif.) in Western blotting. Each lane was loaded with 50 μg protein from cell lysate. Expression of actin was also probed to ensure protein loading.
Cell Cultures HepG2 cells was purchased from American Type Culture Collection (Manassas, Va.). They were maintained in DMEM containing 10% heat-inactivated fetal bovine serum and 1% penicillin/streptomycin in tissue culture dishes incubated in 95% air/5% CO2, at 37° C. The media were changed 2 times per week until the cells were confluent.
Protein immuno-blotting of PPAR-α. HepG2 cells were collected in RIPA buffer (150 mM NaCl, 1% Triton X-100, 1% sodium deoxycholate, 0.1% sodium dodecyl sulfate, 50 mM Tris-HCl, 2 mM EDTA, pH 7.5) with protease inhibitors (Mini-Complete protease inhibitor cocktail tablets (Roche Diagnostics, Mannheim, Germany)] after incubated in puerarin (1-100 μM) for 24 hours. The protein content of the cell lysate was quantified by using a protein assay kit (Bio-Rad Lab, Hercules Calif.). Protein (50 μg) from the whole cell lysate was loaded in each lane of a polyacrylamide (10%) gel, eletrophoresed and blotted to a polyvinylidene difluoride (PVDF) membrane. […]

[6] = Body weights of SHRSP rats treated by gavage for 5 months; assay type: in vivo
Experimental: FIG. 3. Effects of puerarin on the body weights of rats. The rats were fed on a normal chow diet for 5 months starting when they were 4 weeks old. The rats were treated by gavage either with vehicle (normal saline) or puerarin (250 mg/Kg/day in a single dose in normal saline). The data were compared statistically by using two-way ANOVA with n=8 in each group.
Spontaneously hypertensive stroke-prone (SHRSP) male rats were fed on a normal chow diet for 5 months starting when they were 4 weeks old. The rats were treated by gavage either with vehicle (normal saline) or puerarin (250 mg/Kg/day in a single dose in normal saline). Their blood pressures and body weights were monitor everyday for 5 months.

SMILES	activation of PPAR-α (PPAR-α [1])	effect on glucose tolerance [2]	absorption from the intestine [3]	metabolism in the blood [3]	Effects ([4]; AMI patients (Xiao et al., 2004))	Effects ([4]; Angina patients (Yang et al., 1990))	Effects ([4]; CHD patients (Xie et al., 2003))	Effects ([4]; Chronic heart failure patients (Duan et al., 2000))	Effects ([4]; Coronary heart disease (CHD) patients (Shi et al., 2002))	Effects ([4]; Diabetic retinopathy patients (Ren et al., 2000))	Effects ([4]; Unstable angina (UA) patients (Luo and Zheng, 2001))	PPAR-α expression (PPAR-α [5])	body weights, treatment group vs control group (two-way ANOVA) ([6]; 250 mg/Kg/day by gavage, 5-month period, n=8, P<0.001)	toxicity ([6]; 250 mg/Kg/day orally, 5 months, rats)	body weight less than the control rats in average ([6]; 250 mg/Kg/day orally, over 5 months period, SHRSP male rats, normal chow diet)
O=c1c(-c2ccc(O)cc2)coc2cc(O)ccc12 [daidzein]	activate PPAR-α	–	–	–	–	–	–	–	–	–	–	–	–	–	–
O=c1c(-c2ccc(O)cc2)coc2cc(O[C@@H]3O[C@H](CO)[C@@H](O)[C@H](O)[C@H]3O)ccc12 [daidzin, reference compound]	–	impairs glucose tolerance	–	–	–	–	–	–	–	–	–	–	–	–	–
O=c1c(-c2ccc(O)cc2)coc2c([C@@H]3O[C@H](CO)[C@@H](O)[C@H](O)[C@H]3O)c(O)ccc12 [puerarin, 4H-1-Benzopyran-4-one, 8-β-D-glucopyranosyl-7-hydroxy-3-(4-hydroxyphenyl)]	–	improves glucose tolerance	rapidly absorbed	mostly remains unmetabolized	↓ the infarction size, ↓free fatty acids	Anti-angina, reducing both systolic	Simulate the late phase of ischemic	↓ oxidized-LDL, improve heart	Improve insulin resistance, and insulin	↓ blood viscosity, improve	↓ platelet granule membrane protein	upregulated	significantly different	no apparent toxicity	13%
